Experiments:
[1] = target: T1, human adenosine A1 receptor (Homo sapiens, UniProt P30542); test: Inhibition binding assay, human adenosine A1 receptor membranes, [3H]DPCPX; conditions: 1 nM [3H]DPCPX, 25° C., 1 h; IC50 converted to Ki with Cheng-Prusoff; read-out: A1 pKi (converted)
T1 construct: expressed in transfected cells; host or cells: HEK293 cells infected with BacMam (the same paragraph also labels the preparation CHO-hA1)
T1 sequence (P30542 1-326): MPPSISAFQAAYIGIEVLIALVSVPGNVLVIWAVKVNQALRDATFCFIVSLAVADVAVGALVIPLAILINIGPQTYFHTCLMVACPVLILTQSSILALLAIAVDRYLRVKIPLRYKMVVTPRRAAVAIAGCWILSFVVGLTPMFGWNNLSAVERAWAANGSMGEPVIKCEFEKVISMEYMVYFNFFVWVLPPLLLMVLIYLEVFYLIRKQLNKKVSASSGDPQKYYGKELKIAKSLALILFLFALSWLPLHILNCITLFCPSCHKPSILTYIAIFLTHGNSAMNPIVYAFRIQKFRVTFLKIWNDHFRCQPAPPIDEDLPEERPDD
Method: (§1) Inhibition binding assays were performed using 0.2 μg of membranes prepared from HEK293 cells infected with BacMam human adenosine A2A receptor or 1.4 μg of membranes prepared from HEK293 cells infected with BacMam human adenosine A1 receptor. Membranes were incubated in 50 mM Tris-HCl (HEK293-hA2A; pH 7.4) or 50 mM Tris-HCl, 100 mM NaCl, 10 mM MgCl2 (CHO-hA1; pH 7.4) in the presence of varying concentrations of test compound and 1 nM [^3H]ZM241385 (HEK293-hA2A) or [^3H]DPCPX (CHO-hA1) at 25° C. for 1 h. The assay was then terminated by rapid filtration onto GF/B grade Unifilter plates using a TomTec cell harvester, followed by 5×0.5 ml washes with ddH2O. Nonspecific binding was defined in the presence of 1 μM CGS15943 (HEK293-hA2A) or 1 μM DPCPX (CHO-hA1). Bound radioactivity was determined by liquid scintillation counting and inhibition curves were analysed using a four-parameter logistic equation. IC50 values were converted to Ki values with the Cheng-Prusoff equation using a KD value derived from saturation binding studies.

[2] = target: T2, human adenosine A2A receptor (Homo sapiens, UniProt P29274); test: Inhibition binding assay, human adenosine A2A receptor membranes, [3H]ZM241385; conditions: 1 nM [3H]ZM241385, HEK293-hA2A membranes, 25° C., 1 h; IC50 converted to Ki with Cheng-Prusoff; read-out: A2A pKi (converted)
T2 construct: expressed in transfected cells; host or cells: HEK293 cells infected with BacMam
Method: as §1

T2 sequence (P29274 whole entry): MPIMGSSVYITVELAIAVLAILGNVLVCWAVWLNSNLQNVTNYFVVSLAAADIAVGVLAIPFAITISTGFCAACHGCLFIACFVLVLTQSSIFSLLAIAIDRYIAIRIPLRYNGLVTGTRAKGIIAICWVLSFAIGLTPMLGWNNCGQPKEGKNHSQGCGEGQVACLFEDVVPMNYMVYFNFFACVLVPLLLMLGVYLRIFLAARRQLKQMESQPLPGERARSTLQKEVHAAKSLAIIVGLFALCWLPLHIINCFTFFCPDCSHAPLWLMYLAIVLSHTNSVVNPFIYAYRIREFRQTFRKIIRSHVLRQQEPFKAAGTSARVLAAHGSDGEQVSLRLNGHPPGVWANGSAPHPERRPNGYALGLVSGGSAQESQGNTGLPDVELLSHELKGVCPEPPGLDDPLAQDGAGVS

Ki [1] [nM]	Ki [2] [nM]	SMILES
> 3980	79.4	Cc1cc(-c2c(-c3ccc(F)cc3)nc(N)n3c(=O)n(CCN4CCCCC4)nc23)cc(C)n1 [Example 2-104, 5-amino-8-(2,6-dimethyl-4-pyridyl)-7-(4-fluorophenyl)-2-[2-(1-piperidyl)ethyl]-[1,2,4]triazolo[4,3-c]pyrimidin-3-one]
251	0.794	Nc1nc(-c2ccccc2)c(-c2cc(Cl)nc(CO)c2)c2nn(Cc3ccc(F)cn3)c(=O)n12 [Example 1-69, 5-amino-8-[2-chloro-6-(hydroxymethyl)-4-pyridyl]-2-[(5-fluoro-2-pyridyl)methyl]-7-phenyl-[1,2,4]triazolo[4,3-c]pyrimidin-3-one]
794	50.1	Cc1cc(-c2c(-c3ccccc3)nc(N)n3c(=O)n(CC4CS(=O)(=O)C4)nc23)cc(C)n1 [Example 2-90, 5-amino-8-(2,6-dimethyl-4-pyridyl)-2-[(1,1-dioxothietan-3-yl)methyl]-7-phenyl-[1,2,4]triazolo[4,3-c]pyrimidin-3-one]
316	25.1	Cc1cc(-c2c(-c3ccccc3)nc(N)n3c(=O)n(CC4CCCS(=O)(=O)C4)nc23)cc(C)n1 (single isomer, unassigned) [Example 2-89-iso-2, 5-amino-8-(2,6-dimethyl-4-pyridyl)-2-[(1,1-dioxothian-3-yl)methyl]-7-phenyl-[1,2,4]triazolo[4,3-c]pyrimidin-3-one]
79.4	0.126	Cc1cc(-c2c(-c3ccccc3)nc(N)n3c(=O)n(Cc4ccc(F)cn4)nc23)cc(Cl)n1 [Example 1-76, 5-amino-8-(2-chloro-6-methyl-4-pyridyl)-2-[(5-fluoro-2-pyridyl)methyl]-7-phenyl-[1,2,4]triazolo[4,3-c]pyrimidin-3-one]
25.1	6.31	COc1ccc(Cn2nc3c(-c4cc(C)nc(C)c4)c(-c4ccccc4)nc(N)n3c2=O)cc1 [Example 1-3, 5-amino-8-(2,6-dimethyl-4-pyridyl)-2-[(4-methoxyphenyl)methyl]-7-phenyl-[1,2,4]triazolo[4,3-c]pyrimidin-3-one]
79.4	5.01	Cc1cc(-c2c(-c3ccccc3)nc(N)n3c(=O)[nH]nc23)cc(C)n1 [Example 2-1, 5-amino-8-(2,6-dimethyl-4-pyridyl)-7-phenyl-2H-[1,2,4]triazolo[4,3-c]pyrimidin-3-one]
631	20	Cc1cc(-c2c(-c3ccccc3)nc(N)n3c(=O)n(CCOS(C)(=O)=O)nc23)cc(C)n1 [Example 2-9, 2-[5-amino-8-(2,6-dimethyl-4-pyridyl)-3-oxo-7-phenyl-[1,2,4]triazolo[4,3-c]pyrimidin-2-yl]ethyl methanesulfonate]
> 3160	63.1	Cc1cc(-c2c(-c3ccccc3)nc(N)n3c(=O)n(CCN(C)CC(=O)N4CCC(O)CC4)nc23)cc(C)n1 [Example 2-107, 5-amino-8-(2,6-dimethyl-4-pyridyl)-2-[2-[[2-(4-hydroxy-1-piperidyl)-2-oxo-ethyl]-methyl-amino]ethyl]-7-phenyl-[1,2,4]triazolo[4,3-c]pyrimidin-3-one]
251	3.98	Cc1cc(-c2c(-c3ccccc3)nc(N)n3c(=O)n(CCN4CCCCCC4c4cccn4C)nc23)cc(C)n1 (stereo not drawn) [Example 1-96, 5-amino-8-(2,6-dimethyl-4-pyridyl)-2-[2-[2-(1-methylpyrrol-2-yl)azepan-1-yl]ethyl]-7-phenyl-[1,2,4]triazolo[4,3-c]pyrimidin-3-one]
> 2510	10	Cc1cc(-c2c(-c3ccccc3)nc(N)n3c(=O)n(Cc4ccc(F)c(O)n4)nc23)cc(CO)n1 [Example 1-48, 5-amino-2-[(5-fluoro-6-hydroxy-2-pyridyl)methyl]-8-[2-(hydroxymethyl)-6-methyl-4-pyridyl]-7-phenyl-[1,2,4]triazolo[4,3-c]pyrimidin-3-one]
1000	50.1	Cc1cc(-c2c(-c3ccc(F)cc3)nc(N)n3c(=O)n(CCC(F)(F)F)nc23)cc(C)[n+]1[O-] [Example 2-58, 5-amino-8-(2,6-dimethyl-1-oxido-pyridin-1-ium-4-yl)-7-(4-fluorophenyl)-2-(3,3,3-trifluoropropyl)-[1,2,4]triazolo[4,3-c]pyrimidin-3-one]
251	2.51	Cc1cc(-c2c(-c3ccccc3)nc(N)n3c(=O)n(Cc4cccnn4)nc23)cc(C)n1 [Example 1-5, 5-amino-8-(2,6-dimethyl-4-pyridyl)-7-phenyl-2-(pyridazin-3-ylmethyl)-[1,2,4]triazolo[4,3-c]pyrimidin-3-one]
158	2	Cc1cc(-c2c(-c3ccccc3)nc(N)n3c(=O)n(CC4CCCOC4)nc23)cc(C)n1 (single isomer, unassigned) [Example 2-81-iso-1, 5-amino-8-(2,6-dimethyl-4-pyridyl)-7-phenyl-2-(tetrahydropyran-3-ylmethyl)-[1,2,4]triazolo[4,3-c]pyrimidin-3-one]
316	6.31	Cc1cc(-c2c(-c3ccccc3)nc(N)n3c(=O)n(C[C@H]4CN(C(=O)OC(C)(C)C)CCN4C)nc23)cc(C)n1 [Example 2-84, tert-butyl (R)-3-((5-amino-8-(2,6-dimethylpyridin-4-yl)-3-oxo-7-phenyl-[1,2,4]triazolo[4,3-c]pyrimidin-2(3H)-yl)methyl)-4-methylpiperazine-1-carboxylate]
> 3160	398	C/C=C(/C)c1nc(N)n2c(=O)n(CCC(F)(F)F)nc2c1-c1cc(C)nc(C)c1 [Example 3-9, 5-amino-8-(2,6-dimethyl-4-pyridyl)-7-[(Z)-1-methylprop-1-enyl]-2-(3,3,3-trifluoropropyl)-[1,2,4]triazolo[4,3-c]pyrimidin-3-one]
501	1.26	Cc1cc(-c2c(-c3ccccc3)nc(N)n3c(=O)n(Cc4ccc(O)cc4)nc23)cc(C)n1 [Example 1-4, 5-amino-8-(2,6-dimethyl-4-pyridyl)-2-[(4-hydroxyphenyl)methyl]-7-phenyl-[1,2,4]triazolo[4,3-c]pyrimidin-3-one]
> 3980	200	Cc1cc(-c2c(-c3ccccc3)nc(N)n3c(=O)n(CCNC4CCCC(C(=O)NC5CC5)C4)nc23)cc(C)n1 (stereo not drawn) [Example 2-108, 3-[2-[5-amino-8-(2,6-dimethyl-4-pyridyl)-3-oxo-7-phenyl-[1,2,4]triazolo[4,3-c]pyrimidin-2-yl]ethylamino]-N-cyclopropyl-cyclohexanecarboxamide]
3.98	0.126	Cc1cc(-c2c(-c3ccccc3)nc(N)n3c(=O)n(Cc4ccccc4CC4CCNCC4)nc23)cc(C)n1 [Example 1-32, 5-amino-8-(2,6-dimethyl-4-pyridyl)-7-phenyl-2-[[2-(4-piperidylmethyl)phenyl]methyl]-[1,2,4]triazolo[4,3-c]pyrimidin-3-one]
316	1.26	Cc1cc(-c2c(-c3ccccc3)nc(N)n3c(=O)n(CC4CCCOC4)nc23)cc(CO)n1 (single isomer, unassigned) [Example 2-92-iso-2, 5-amino-8-[2-(hydroxymethyl)-6-methyl-4-pyridyl]-7-phenyl-2-(tetrahydropyran-3-ylmethyl)-[1,2,4]triazolo[4,3-c]pyrimidin-3-one]
200	0.398	COc1ccc(Cn2nc3c(-c4cc(C)nc(Cl)c4)c(-c4ccccc4)nc(N)n3c2=O)nc1 [Example 1-77, 5-amino-8-(2-chloro-6-methyl-4-pyridyl)-2-[(5-methoxy-2-pyridyl)methyl]-7-phenyl-[1,2,4]triazolo[4,3-c]pyrimidin-3-one]
631	6.31	Cc1cc(-c2c(-c3ccccc3)nc(N)n3c(=O)n(CCC4CCN(C)CC4)nc23)cc(C)n1 [Example 2-97, 5-amino-8-(2,6-dimethyl-4-pyridyl)-2-[2-(1-methyl-4-piperidyl)ethyl]-7-phenyl-[1,2,4]triazolo[4,3-c]pyrimidin-3-one]
> 3160	398	Cc1cc(-c2c(-c3ccccc3)nc(N)n3c(=O)n(CC4CCNCC4)nc23)cc(C)n1 [Example 2-68, 5-amino-8-(2,6-dimethyl-4-pyridyl)-7-phenyl-2-(4-piperidylmethyl)-[1,2,4]triazolo[4,3-c]pyrimidin-3-one]
> 3980	200	Cc1cc(-c2c(-c3ccccc3)nc(N)n3c(=O)n(CCc4ccc(C(=O)O)cc4)nc23)cc(C)n1 [Example 1-85, 4-[2-[5-amino-8-(2,6-dimethyl-4-pyridyl)-3-oxo-7-phenyl-[1,2,4]triazolo[4,3-c]pyrimidin-2-yl]ethyl]benzoic acid]
